Source: US7585859B2, “PDE4B inhibitors and uses therefor” (Plexxikon, Inc., priority 2004, dated 2009)
Like-named read-outs stand apart in the source and are kept apart here.

Assays:
Format in all cases: biochemical
[1] = target: T1, PDE4B: The catalytic domain of human PDE4B from S152-S528 (Homo sapiens, UniProt Q07343); experiment: PDE4 IC50 determination by Scintillation Proximity Assay, PDE4B
T1 construct: His6 (N); thrombin cleavage site (N); made in house; host or cells: E. coli
Method in brief: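 Scintillation counts reflected [^3H]AMP captured on yttrium silicate SPA beads after enzyme hydrolysed [^3H]cAMP for 30 min at 30°. PDE4B was used at 80 ng/ml and PDE4D at 4 ng/ml. IC50 values came from non-linear regression.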

[2] = target: T2, full-length human PDE4D5 isozyme (Homo sapiens, UniProt Q08499); experiment: PDE4 IC50 determination by Scintillation Proximity Assay, PDE4D5
T2 construct: The full-length human PDE4D5 isozyme; His6 (N); TEV cleavage site (N); made in house; host or cells: baculovirus infected insect cells (unpurified lysate)
T2 sequence (Q08499 1-745 isoform Q08499-6): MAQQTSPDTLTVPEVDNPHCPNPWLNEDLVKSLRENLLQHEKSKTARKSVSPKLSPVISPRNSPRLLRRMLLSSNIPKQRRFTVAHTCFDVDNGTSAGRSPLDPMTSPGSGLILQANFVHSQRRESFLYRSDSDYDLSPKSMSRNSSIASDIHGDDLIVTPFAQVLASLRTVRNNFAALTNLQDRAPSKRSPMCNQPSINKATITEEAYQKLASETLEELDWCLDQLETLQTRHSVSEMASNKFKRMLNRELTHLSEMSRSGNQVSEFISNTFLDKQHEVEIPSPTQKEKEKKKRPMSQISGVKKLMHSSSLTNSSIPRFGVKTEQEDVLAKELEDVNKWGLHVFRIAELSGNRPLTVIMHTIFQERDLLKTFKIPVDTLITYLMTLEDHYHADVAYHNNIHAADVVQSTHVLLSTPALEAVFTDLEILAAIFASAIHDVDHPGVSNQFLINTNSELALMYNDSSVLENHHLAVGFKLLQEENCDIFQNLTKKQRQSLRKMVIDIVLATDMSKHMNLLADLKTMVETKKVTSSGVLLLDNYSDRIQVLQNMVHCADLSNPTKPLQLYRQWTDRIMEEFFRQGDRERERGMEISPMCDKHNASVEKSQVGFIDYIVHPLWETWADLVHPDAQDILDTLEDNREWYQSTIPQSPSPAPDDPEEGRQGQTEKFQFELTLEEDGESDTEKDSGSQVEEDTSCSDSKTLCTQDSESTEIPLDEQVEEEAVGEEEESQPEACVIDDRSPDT
Method in brief: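 Unpurified His6-tagged full-length human PDE4D5 from baculovirus-infected insect cell lysate, 0.083 μl glycerol stock/ml, hydrolysed [3H]cAMP in Tris pH 7.5/MgCl/EGTA buffer, 30 min at 30°. ZnSO4/SPA beads stop; [3H]AMP counted. Controls: DMSO and roflumilast; 11-point duplicate curves, nonlinear-regression IC50.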

[3] = target: T3, full-length human PDE4B2 isozyme (Homo sapiens, UniProt Q07343); experiment: PDE4 IC50 determination by Scintillation Proximity Assay, PDE4B2
T3 construct: The full-length human PDE4B2 isozyme; His6 (N); TEV cleavage site (N); made in house; host or cells: baculovirus infected insect cells (unpurified lysate)
T3 sequence (Q07343 1-564 isoform Q07343-2): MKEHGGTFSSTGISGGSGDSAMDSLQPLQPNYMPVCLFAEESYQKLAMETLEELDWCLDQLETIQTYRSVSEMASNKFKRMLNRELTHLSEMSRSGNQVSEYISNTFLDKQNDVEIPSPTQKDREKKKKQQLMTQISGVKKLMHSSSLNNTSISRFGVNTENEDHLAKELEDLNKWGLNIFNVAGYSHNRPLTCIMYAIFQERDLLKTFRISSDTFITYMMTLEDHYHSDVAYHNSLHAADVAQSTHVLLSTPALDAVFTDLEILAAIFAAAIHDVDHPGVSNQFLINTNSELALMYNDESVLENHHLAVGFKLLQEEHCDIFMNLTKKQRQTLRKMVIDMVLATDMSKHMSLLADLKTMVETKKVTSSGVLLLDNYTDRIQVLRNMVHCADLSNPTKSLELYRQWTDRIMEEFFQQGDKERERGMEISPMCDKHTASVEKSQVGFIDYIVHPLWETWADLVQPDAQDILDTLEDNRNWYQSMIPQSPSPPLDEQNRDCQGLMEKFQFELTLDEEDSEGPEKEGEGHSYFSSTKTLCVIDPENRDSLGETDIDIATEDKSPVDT
Method in brief: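 Unpurified His6-TEV-tagged full-length human PDE4B2 from baculovirus-infected insect cell lysate (2.5 μl of 50% glycerol stock/ml) hydrolysed [3H]cAMP in 50 mM Tris pH 7.5, 8.3 mM MgCl, 1.7 mM EGTA, 0.01% BSA for 30 min at 30°. Stopped with SPA beads in 18 mM ZnSO4; [3H]AMP scintillation counted, IC50 by non-linear regression.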

[4] = Table 1B, Formula I compounds, read-out: IC50 PDE4B
[5] = Table 1B, Formula I compounds, read-out: IC50 PDE4D5
[6] = Table 1B, Formula I compounds, read-out: IC50 PDE4B2
[7] = second part of Table 2B (2-23 to 2-103), column 3, column is PDE4B in first part, read-out: IC 50 vs. indicated assay h TNFα
[8] = second part of Table 2B (2-23 to 2-103), column 4, column is PDE4B2 in first part, read-out: IC 50 vs. indicated assay h TNFα

T1 sequence (Q07343 with tags, fused parts or gaps): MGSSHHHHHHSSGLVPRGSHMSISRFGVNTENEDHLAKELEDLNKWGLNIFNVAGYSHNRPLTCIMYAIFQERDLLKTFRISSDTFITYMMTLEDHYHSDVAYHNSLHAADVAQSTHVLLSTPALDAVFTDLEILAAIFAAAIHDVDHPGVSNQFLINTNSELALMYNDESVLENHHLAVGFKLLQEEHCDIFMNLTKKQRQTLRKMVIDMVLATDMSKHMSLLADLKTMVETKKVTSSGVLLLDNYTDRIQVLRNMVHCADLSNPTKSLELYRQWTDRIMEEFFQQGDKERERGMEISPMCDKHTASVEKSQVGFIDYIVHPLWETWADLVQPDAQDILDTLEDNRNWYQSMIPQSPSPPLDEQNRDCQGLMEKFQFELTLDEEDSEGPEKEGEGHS

| SMILES | IC50 [1, 4] [µM] | IC50 [2, 5] [µM] | IC50 [3, 6] [µM] | further results |
| --- | --- | --- | --- | --- |
| N#Cc1c(Nc2ccccc2)sc(C(=O)C2CC2)c1N [Compound 1-28, 4-Amino-5-cyclopropanecarbonyl-2-phenylamino-thiophene-3-carbonitrile] | < 10 | < 10 | < 10 | – |
| COc1ccc(C(=O)c2sc(Nc3ccccc3)c(C#N)c2N)cc1 [Compound 1-31] | < 10 | < 10 | < 10 | – |
| CCOC(=O)c1c(NC2CCCC2)sc(C(=O)c2ccc(OC)cc2)c1N [Compound 1-191, 4-Amino-2-cyclopentylamino-5-(4-methoxy-benzoyl)-thiophene-3-carboxylic acid ethyl ester] | < 10 | < 10 | < 10 | – |
| N#Cc1c(Nc2ccccc2)sc(C(=O)c2cc(-c3ccccc3)no2)c1N [Compound 1-192, 4-Amino-2-phenylamino-5-(3-phenyl-isoxazole-5-carbonyl)-thiophene-3-carbonitrile] | < 10 | < 10 | < 10 | – |
| CC(C)Nc1sc(C(=O)c2cc(-c3ccccc3)no2)c(N)c1C#N [Compound 1-205, 4-Amino-2-isopropylamino-5-(3-phenyl-isoxazole-5-carbonyl)-thiophene-3-carbonitrile] | < 10 | – | > 10 | – |
| CC(C)Nc1sc(C(=O)c2cc(-c3ccc(Cl)cc3)no2)c(N)c1C#N [Compound 1-212, 4-Amino-5-[3-(4-chloro-phenyl)-isoxazole-5-carbonyl]-2-isopropylamino-thiophene-3-carbonitrile] | < 10 | > 10 | < 10 | – |
| CC(C)CNc1sc(C(=O)c2cc(-c3ccccc3)no2)c(N)c1C(N)=O [Compound 1-236, 4-Amino-2-isobutylamino-5-(3-phenyl-isoxazole-5-carbonyl)-thiophene-3-carboxylic acid amide] | < 10 | < 10 | < 10 | – |
| NC(=O)c1c(NC2CCCC2)sc(C(=O)c2cc(-c3ccccc3)no2)c1N [Compound 1-251, 4-Amino-2-cyclopentylamino-5-(3-phenyl-isoxazole-5-carbonyl)-thiophene-3-carboxylic acid amide] | < 10 | < 10 | < 10 | – |
| Nc1nc(Nc2ccccc2F)sc1C(=O)c1cc(-c2ccccc2)no1 [Compound 2-6, [4-Amino-2-(2-fluoro-phenylamino)-thiazol-5-yl]-(3-phenyl-isoxazol-5-yl)-methanone] | – | – | – | IC50 ([1]; first part of Table 2B (2-1 to 2-22), read-out: IC 50 vs. indicated assay PDE4B): < 10 µM; IC50 ([2]; first part of Table 2B (2-1 to 2-22), read-out: IC 50 vs. indicated assay PDE4D5): < 10 µM; IC50 ([3]; first part of Table 2B (2-1 to 2-22), read-out: IC 50 vs. indicated assay PDE4B2): < 10 µM |
| Nc1nc(Nc2ccc(Cl)cc2)sc1C(=O)c1cccc(C(F)(F)F)c1 [Compound 2-23, [4-Amino-2-(4-chloro-phenylamino)-thiazol-5-yl]-(3-trifluoromethyl-phenyl)-methanone] | – | – | – | IC50 [1, 7]: < 10 µM; IC50 [3, 8]: < 10 µM |
| Nc1nc(NC2CCCC2)sc1C(=O)c1cccc(Cl)c1 [Compound 2-80, (4-Amino-2-cyclopentylamino-thiazol-5-yl)-(3-chloro-phenyl)-methanone] | – | – | – | IC50 [1, 7]: < 10 µM; IC50 [3, 8]: < 10 µM |
